Test results reported in patent US11129782B2, “Derivatives of PPD useful for coloring hair and skin” (National University of Singapore, priority 2017, dated 2021).
Values belong to the compound of their own block, whether it stands above or below them.

What was measured:
HaCaT cells = test: In vitro cell cytotoxicity (MTT) assay on HaCaT cells; format: cell-based, human
Excerpt: HaCaT (human, adult, low calcium, high temperature, human adult skin keratinocytes) cells were obtained from the IMB (Institute of Medical Biology) Skin Cell Bank. Fetal bovine serum (FBS), Dulbecco's minimum essential medium (DMEM) and trypsin EDTA solution were purchased from GE healthcare life sciences, Utah. Penicillin/streptomycin, dimethyl sulfoxide (DMSO), and phosphate buffered saline (PBS) were from Fisher Scientific (Singapore). Para-phenylenediamine (PPD) was purchased from Sigma Aldrich (Singapore). PPD analogues such as Dimer, trimer, ethyl hexyl para-phenylenediamine (EHPPD), hexyl para-phenylenediamine (HPPD), Bandrowski base (BB) were synthesized in house.
Cell viability was essentially determined using the MTT assay as described in the literature. The HaCaT cells were grown in DMEM with 10% FBS and 1% penicillin/streptomycin. The cells in T-75 cm^2 culture flasks were incubated with 5% CO2 at 37° C. in a humidified incubator. The HaCaT cells were grown to expected confluency and then they were harvested by trypsinizing the cell with 0.25% trypsin/EDTA and incubated at 37° C. for 5 min to obtain the complete cell detachment. After the incubation, cell pellets were resuspended, and washed twice with 1×PBS. The cell suspension in 1×PBS was counted and adjusted to 1×10^5/mL. A HaCaT keratinocyte suspension (100 μL in 1×PBS) with a cell concentration of 1×10^5 cells/mL) and a test solution (100 μL in milli-Q water) were combined in each well of two 96-well plates. Test solutions with a desired concentration were prepared by serial dilutions of the stock solutions with 1×PBS.
For the cytotoxicity experiment, cells were seeded at a density of 5×10^3 in 200 ul of medium into each well of 96-well plates. Cells were seeded as three sets of four replicates for each concentration. After 24 h of incubation, the cells were washed with PBS and cultured for 72 h with 200 ul of 10% FBS containing DMEM medium, together with the different concentrations of the test compounds ranging from 500 μM to 1.9 μM for PPD and analogues 1-5 and standard in a serial dilution. Then the medium was removed and 100 μl of MTT [3-(4,5-dimethylthiazol-2yl)-2,5-diphenyl-2H-tetrazolium bromide](1 mg/ml) (Alfa Aesar, Singapore) in PBS was added. At the end of 4 h incubation, the plates were removed from the incubator and plates were shaken for 5 min. The absorbance at 570 nm was determined using Bio-Tek plate reader. The cell viability rates were calculated from absorbance readings and represented as percentages of control value (untreated cells).

[1] = tested on: cysteine peptide (Ac-RFAACAA-COOH); test: Direct Peptide Reactivity Assay, cysteine peptide; settings: for % of Cysteine depletion, Avg / % of Cysteine depletion, Rep 2 / % of Cysteine depletion, Rep 3 / Reactivity Class: 1:10; for % of Cysteine depletion, Rep 1: peptide 0.02 mM : test chemical 0.2 mM (1:10); for Reactivity Class: cysteine
Protocol: For cysteine DPRA, an additional step was performed.
(§1) The mass spectrometric analysis was performed by use of a AB SCIEX QTRAP 5500 tandem mass spectrometry (MS/MS) system (AB SCIEX, Framingham, Mass., USA) operating in triple quadrupole positive mode (ESI+) equipped with an AB Sciex Turbo Ion Spray interface. Acquisition and analysis of data were performed with Analyst software ver. 1.6.2 (Applied Biosystems).

[2] = tested on: lysine peptide (Ac-RFAAKAA-COOH); test: Direct Peptide Reactivity Assay, lysine peptide; settings: for % of Lysine depletion, Avg / % of Lysine depletion, Rep 2 / % of Lysine depletion, Rep 3 / Reactivity Class: 1:50; for % of Lysine depletion, Rep 1: peptide 0.02 mM : test chemical 1 mM (1:50); for Reactivity Class: lysine
Protocol: as §1

[3] = Skin permeation in vertical Franz diffusion cells; format: in vitro ADME, porcine; settings: 8 h; for Skin permeation (in words): porcine skin
Protocol: Porcine ears were generously provided by the NUS Department of Surgery. The ears were frozen at −80° C. until use (up to 3 months) and thawed at room temperature on the day preceding the experiment. Prior to the experiment, the skin was separated from the cartilage and dermatomed to a thickness of ˜1.0 mm using an Acculan™ 3Ti dermatome (Aesculap, Inc., B. Braun, USA).
The PPD and derivatives were dissolved in deionized water at 1% w/v. The PPD and PPD derivatives 1-5 solutions were purged with argon gas to minimize oxidation of the donor solution.
Skin penetration studies were carried out using vertical Franz diffusion cells (PermeGear, USA) immersed in a 37° C. water bath. The donor and receptor volumes were 900 µL and 5 mL, respectively; the mean surface area of penetration was 0.64 cm^2. Upon insertion of the skin pieces into the Franz cells, the skin was equilibrated for 45 min with PBS in the receptor compartment. After equilibration, the skin's trans-epidermal water loss (TEWL) was measured using an Aquaflux AF300 (Biox, UK) to assess the integrity of the skin's stratum corneum barrier. The donor solution, consisting of PPD or derivative 1-5 (n=3 Franz cells each), was then added to the donor compartment and the penetration experiments were conducted for 8 h. The receptor solutions were continuously stirred with magnetic stirrers. At fixed time points, aliquots of 200 μL were taken from the receptor solution of each cell and the receptor solution topped up with 200 μL of fresh PBS. At the end of the experiment, the donor and receptor solutions were removed and the cells dismantled. For the purpose of mass balance on the PPD, PPD derivatives 1-5 the skin pieces and swabs of their outer surfaces were collected and stored in acetonitrile for PPD or derivative 1-5 extraction. The donor solution as well as PBS used to thoroughly wash each part of the Franz cells were also collected.
PPD, PPD derivatives 1-5 and metabolite concentrations in all permeation and mass balance samples were measured by LCMS. PPD steady state fluxes and permeability coefficients were calculated by fitting the solution to Fick's second law of diffusion at the steady state to the linear part of each experimental cumulative amount curve.
The validated method LCMS was applied to quantify PPD, PPD derivative 1-5 and metabolites from skin permeation study samples. FIGS. 3 and 4 show LCMS spectra for the identification of PPD and PPD derivatives 1 and 2 and metabolites from skin permeation study experiment.

[4] = tested on: cysteine and lysine peptides; test: Direct Peptide Reactivity Assay, mean of cysteine and lysine depletion (FIG. 12); settings: for Sensitizing potential predicted from mean peptide depletion: cysteine 1:10 / lysine 1:50 model
Protocol: Direct reactivity of test chemical to lysine-based synthetic peptide was determined in reactions containing 100 mM ammonium acetate buffer (pH 10.2). The final concentration of lysine peptide was 20 μM in a final reaction volume of 0.3 ml. Direct reactivity of test chemicals to cysteine-based synthetic peptide was determined in 100 mM Sodium Phosphate buffer of pH 7.5.
For the DPRA, incubation mixtures were prepared using each peptide to test compound ratios of both 1:10 for cysteine peptide and 1:50 for lysine peptide, according to Table 19. […] Sample reactions were initiated by adding 3 μl of a test chemical stock solution for cysteine and 15 μl stock solution for lysine peptide. These mixtures were then placed in a temperature-controlled shaking incubator at 25° C.
At each time point (20 mins/24 hours), the incubation mixtures were quenched with 75 μL of 95% ACN/H2O, and mildly vortexed (600 rpm, 3 seconds). For Lysine DPRA experiment, 10 μl of aliquot was diluted with 2% ACN/H2O, vortexed and stored at −80° C. until analysis by LC-MS/MS. For cysteine DPRA, an additional step was performed. 10 μl of cysteine reaction mixture, at time points 20 min and 24 h were diluted in 180 μl of 2% ACN/H2O. To which, a 10 μl aliquot of a 16 mM dithiothreitol solution (prepared in water) was then added, and samples were heated in a 45° C. oven for 30 min, then allowed to cool to room temperature prior to analysis. The peptide depletion (PD) percentage was obtained using this equation.

[5] = Homo sapiens, HaCaT, 72 h, 72 h incubation, MTT

SMILES: CCOC(=O)/C=C\C(=O)OCC [Diethylmaleate, reference compound]
IC50 (HaCaT cells; [5]): > 100 µM

SMILES: COc1cccc2c1C(=O)c1c(O)c3c(c(O)c1C2=O)C[C@@](O)(C(=O)CO)C[C@@H]3O[C@H]1C[C@H](N)[C@H](O)[C@H](C)O1 [Doxorubicin, reference compound]
IC50 (HaCaT cells; [5]): < 0.39 µM

Reactivity Class ([1]; 20 min): No or Minimal | Reactivity Class ([1]; 24 h): No or Minimal | Reactivity Class ([2]; 20 min): No or Minimal | Reactivity Class ([2]; 24 h): No or Minimal
SMILES: OC[C@H]1O[C@@H](O[C@H]2[C@H](O)[C@@H](O)C(O)O[C@@H]2CO)[C@H](O)[C@@H](O)[C@H]1O (stereo partly shown) [Lactose, reference compound]
% of Cysteine depletion, Avg ([1]; 20 min): 0% | % of Cysteine depletion, Rep 2 ([1]; 20 min): 0% | % of Cysteine depletion, Rep 3 ([1]; 20 min): 0% | % of Cysteine depletion, Rep 1 ([1]; 20 min): 0% | % of Cysteine depletion, Avg ([1]; 24 h): 0.6% | % of Cysteine depletion, Rep 2 ([1]; 24 h): 1% | % of Cysteine depletion, Rep 3 ([1]; 24 h): 1% | % of Cysteine depletion, Rep 1 ([1]; 24 h): 0% | % of Lysine depletion, Avg ([2]; 20 min): 0% | % of Lysine depletion, Rep 2 ([2]; 20 min): 0% | % of Lysine depletion, Rep 3 ([2]; 20 min): 0% | % of Lysine depletion, Rep 1 ([2]; 20 min): 0% | % of Lysine depletion, Avg ([2]; 24 h): 0% | % of Lysine depletion, Rep 2 ([2]; 24 h): 0% | % of Lysine depletion, Rep 3 ([2]; 24 h): 0% | % of Lysine depletion, Rep 1 ([2]; 24 h): 0%

SMILES: CC1=CC(=O)c2ccccc2C1=O [Menadione, reference compound]
IC50 (HaCaT cells; [5]): 3.56 µM

SMILES: CCCCCCOc1cc(Nc2ccc(N)cc2)ccc1N [PPD derivative 5, 4-Amino-(3-hexyloxy)-4′-aminodiphenylamine]
IC50 (HaCaT cells; 72 h incubation, MTT): 14.3 µM | % of Cysteine depletion, Avg ([1]; 20 min): 51.2% | % of Cysteine depletion, Rep 2 ([1]; 20 min): 52.9% | % of Cysteine depletion, Rep 3 ([1]; 20 min): 49.9% | % of Cysteine depletion, Rep 1 ([1]; 20 min): 50.9% | % of Cysteine depletion, Avg ([1]; 24 h): 53.8% | % of Cysteine depletion, Rep 2 ([1]; 24 h): 53.8% | % of Cysteine depletion, Rep 3 ([1]; 24 h): 54.1% | % of Cysteine depletion, Rep 1 ([1]; 24 h): 53.5% | % Parent compound Penetrated (mean) ([3]; 1% W/V applied): 0% | % Parent compound Recovery (mean) ([3]; 1% W/V applied): 98% | % converted to metabolite (mean) ([3]; 1% W/V applied): 0.0118% | Skin permeation (in words) [3]: did not permeate the skin at all | Skin permeation (in words) ([3]; listed as PPD 5): impermeable | % of Lysine depletion, Avg ([2]; 20 min): 6.3% | % of Lysine depletion, Rep 2 ([2]; 20 min): 5.92% | % of Lysine depletion, Rep 3 ([2]; 20 min): 6.2% | % of Lysine depletion, Rep 1 ([2]; 20 min): 6.76% | % of Lysine depletion, Avg ([2]; 24 h): 14.3% | % of Lysine depletion, Rep 2 ([2]; 24 h): 15.2% | % of Lysine depletion, Rep 3 ([2]; 24 h): 13.8% | % of Lysine depletion, Rep 1 ([2]; 24 h): 13.8% | Reactivity Class ([2]; 20 min): No or Minimal | Reactivity Class ([2]; 24 h): Low

SMILES: Cc1ccc(NCc2ccc(Nc3ccc(Nc4ccc(N)cc4)cc3)cc2)cc1 [PPD derivative 10, N^1-[4-(4-tolylaminomethyl)phenyl]-N^4-(4-aminophenyl)-1,4-benzenediamine]
IC50 (HaCaT cells; [5]): 1.8 µM | Sensitizing potential predicted from mean peptide depletion [4]: weak sensitizer | Mean peptide depletion ([4]; mean of cysteine (1:10) and lysine (1:50), FIG. 12): 23.0%

SMILES: O=[N+]([O-])c1ccc(CNc2ccc(Nc3ccc(NCc4ccc([N+](=O)[O-])cc4)cc3)cc2)cc1 [PPD derivative 11, N^4-[(4-nitrophenyl)methyl]-N^1-[4-[(4-nitrophenyl)methylamino]phenyl]-benzene-1,4-diamine]
IC50 (HaCaT cells; [5]): 6.4 µM

SMILES: COc1ccc(CNc2ccc(Nc3ccc(NCc4ccc(OC)cc4)cc3)cc2)cc1 [PPD derivative 12]
IC50 (HaCaT cells; [5]): 4.3 µM

SMILES: Cc1ccc(CNc2ccc(Nc3ccc(NCc4ccc(C)cc4)cc3)cc2)cc1 [PPD derivative 13, N^4-(p-tolylmethyl)-N^1-[4-(p-tolylmethylamino)phenyl]benzene-1,4-diamine]
IC50 (HaCaT cells; [5]): 5.2 µM

SMILES: Oc1ccc(CNc2ccc(Nc3ccc(NCc4ccc(O)cc4)cc3)cc2)cc1 [PPD derivative 14, 4-[[4-[4-[(4-hydroxyphenyl)methylamino]anilino]anilino]methyl]phenol]
IC50 (HaCaT cells; [5]): 5.4 µM

SMILES: CCCCCCNc1ccc(N)cc1OCCCCCC [PPD derivative 16, (N^1-hexyl)(2-hexyloxy)-1,4-diaminobenzene]
IC50 (HaCaT cells; 72 h incubation, MTT): 140 µM | Sensitizing potential predicted from mean peptide depletion [4]: moderate sensitizer

SMILES: CCC(C)(C)C(=O)O[C@H]1C[C@@H](C)C=C2C=C[C@H](C)[C@H](CC[C@@H]3C[C@@H](O)CC(=O)O3)[C@H]21 [Simvastatin, reference compound]
IC50 (HaCaT cells; Homo sapiens, HaCaT): 9.15 µM | IC50 (HaCaT cells; [5]): 28.6 µM

SMILES: CC(C)(C)c1cc(O)ccc1O [Tertbutylhydroquinone, reference compound]
IC50 (HaCaT cells; [5]): 27.9 µM

SMILES: O=C1C=CC(=O)C=C1 [p-Benzoquinone, p-benzoquinone, reference compound]
% of Cysteine depletion, Avg ([1]; 20 min): 72.8% | % of Cysteine depletion, Rep 2 ([1]; 20 min): 73.7% | % of Cysteine depletion, Rep 3 ([1]; 20 min): 72.0% | % of Cysteine depletion, Rep 1 ([1]; 20 min): 72.7% | % of Cysteine depletion, Avg ([1]; 24 h): 89.7% | % of Cysteine depletion, Rep 2 ([1]; 24 h): 89.5% | % of Cysteine depletion, Rep 3 ([1]; 24 h): 90% | % of Cysteine depletion, Rep 1 ([1]; 24 h): 89.6% | Reactivity Class ([1]; 20 min): High | Reactivity Class ([1]; 24 h): High | % of Lysine depletion, Avg ([2]; 20 min): 21.0% | % of Lysine depletion, Rep 2 ([2]; 20 min): 20.6% | % of Lysine depletion, Rep 3 ([2]; 20 min): 20% | % of Lysine depletion, Rep 1 ([2]; 20 min): 22.5% | % of Lysine depletion, Avg ([2]; 24 h): 88.7% | % of Lysine depletion, Rep 2 ([2]; 24 h): 87.5% | % of Lysine depletion, Rep 3 ([2]; 24 h): 91.6% | % of Lysine depletion, Rep 1 ([2]; 24 h): 87.0% | Reactivity Class ([2]; 20 min): Low | Reactivity Class ([2]; 24 h): High
